Values of other authors as cited in patent publication US6277963A, “Antibodies directed toward extracellular signal-related kinases” (Regeneron Pharmaceuticals, Inc., priority 1997, dated 2001).

Molecular target: MAP2 kinase (partially purified enzyme) (Mus musculus, UniProt P63085)
Sequence (P63085 whole entry): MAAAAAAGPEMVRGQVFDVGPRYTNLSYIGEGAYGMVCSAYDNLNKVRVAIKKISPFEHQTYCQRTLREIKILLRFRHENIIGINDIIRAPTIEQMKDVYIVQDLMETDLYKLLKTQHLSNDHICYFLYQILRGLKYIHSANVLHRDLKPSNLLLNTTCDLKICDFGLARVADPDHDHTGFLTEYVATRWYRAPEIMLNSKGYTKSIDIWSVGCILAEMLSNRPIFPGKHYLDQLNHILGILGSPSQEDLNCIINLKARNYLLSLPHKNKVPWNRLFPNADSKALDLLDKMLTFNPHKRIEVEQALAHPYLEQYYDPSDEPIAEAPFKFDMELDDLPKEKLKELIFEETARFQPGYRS

Row | utilization of GTP | SMILES | Km (read-out: Km for ATP) [µM]
1 |  | Nc1ncnc2c1ncn2[C@@H]1O[C@H](COP(=O)(O)OP(=O)(O)OP(=O)(O)O)[C@@H](O)[C@H]1O [ATP] | 7
2 | did not appear to utilize GTP | Nc1nc2c(ncn2[C@@H]2O[C@H](COP(=O)(O)OP(=O)(O)OP(=O)(O)O)[C@@H](O)[C@H]2O)c(=O)[nH]1 [GTP] | 
